# Assays:
# [1] = molecular target: Adenosine receptors; A1 & A3 (Rattus norvegicus) (UniProt P25099+P28647); test: Ratio of selectivity for A3 and A1 receptors at rat brain
# [2] = molecular target: Adenosine receptor A2a (Rattus norvegicus, UniProt P30543)
# Description: Displacement of [3H]-CGS- 21680 from adenosine A2a receptors of rat striatal membrane
# [3] = molecular target: T1, Adenosine receptor A1 (Rattus norvegicus, UniProt P25099)
# T1 sequence (P25099 whole entry): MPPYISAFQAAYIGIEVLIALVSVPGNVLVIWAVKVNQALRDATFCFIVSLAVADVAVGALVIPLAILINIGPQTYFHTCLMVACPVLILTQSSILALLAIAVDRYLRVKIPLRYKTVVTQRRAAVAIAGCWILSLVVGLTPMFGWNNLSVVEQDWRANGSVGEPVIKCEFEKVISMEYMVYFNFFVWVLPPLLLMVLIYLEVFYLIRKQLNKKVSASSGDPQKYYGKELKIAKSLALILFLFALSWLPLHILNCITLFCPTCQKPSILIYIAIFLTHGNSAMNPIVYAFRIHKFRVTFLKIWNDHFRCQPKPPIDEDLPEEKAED
# Description: Displacement of [3H]PIA from adenosine A1 receptors of rat brain membrane
# [4] = molecular target: T2, Adenosine receptor A3 (Rattus norvegicus, UniProt P28647); test: Displacement of [125I]AB-MECA from membranes of CHO cells stably transfected with the rat adenosine A3 receptor cDNA; type: cell membranes
# T2 sequence (P28647 whole entry): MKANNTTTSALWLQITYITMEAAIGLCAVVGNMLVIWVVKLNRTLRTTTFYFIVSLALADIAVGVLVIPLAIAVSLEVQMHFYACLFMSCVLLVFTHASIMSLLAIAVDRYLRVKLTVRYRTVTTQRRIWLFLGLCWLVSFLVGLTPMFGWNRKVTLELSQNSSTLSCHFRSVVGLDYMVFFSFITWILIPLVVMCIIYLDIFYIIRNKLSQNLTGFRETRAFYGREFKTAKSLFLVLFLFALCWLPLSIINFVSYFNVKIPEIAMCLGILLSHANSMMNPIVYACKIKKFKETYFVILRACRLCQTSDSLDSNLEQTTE
# [5] = molecular target: T3, Adenosine receptor A3 (Rattus norvegicus) (UniProt P28647); test: Tested for the binding affinity, for displacement of [125I]AB-MECA in membranes of CHO cells stably transfected with the rat A3-cDNA at the 10e-5 concentration (M); type: cell membranes
# T3 sequence (whole entry): T2 sequence (P28647 whole entry)
# [6] = molecular target: Adenosine receptor A2a (Rattus norvegicus) (UniProt P30543); test: Tested for the binding affinity, for displacement of [3H]-CGS- 21680 in A2a receptors of rat striatal membrane at 10e-5 concentration (M)
# Adenosine receptor A2a (Rattus norvegicus), sequence (P30543 whole entry): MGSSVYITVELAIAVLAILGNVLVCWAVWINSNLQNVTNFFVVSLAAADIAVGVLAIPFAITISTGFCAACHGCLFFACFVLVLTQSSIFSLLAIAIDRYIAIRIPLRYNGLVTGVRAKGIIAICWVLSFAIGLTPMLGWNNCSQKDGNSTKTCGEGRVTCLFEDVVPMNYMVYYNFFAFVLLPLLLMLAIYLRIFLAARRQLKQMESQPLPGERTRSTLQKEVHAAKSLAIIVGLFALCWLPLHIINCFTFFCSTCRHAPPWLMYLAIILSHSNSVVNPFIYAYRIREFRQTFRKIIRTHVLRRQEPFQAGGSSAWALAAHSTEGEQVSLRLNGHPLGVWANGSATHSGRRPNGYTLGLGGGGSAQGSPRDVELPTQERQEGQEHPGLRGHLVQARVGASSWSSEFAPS
# [7] = molecular target: T3, Adenosine receptor A3 (Rattus norvegicus); test: Tested for the binding affinity, for displacement of [125I]AB-MECA in membranes of CHO cells stably transfected with the rat A3-cDNA at the 3*10e-5 concentration (M); type: cell membranes
# [8] = molecular target: T3, Adenosine receptor A3 (Rattus norvegicus); test: Tested for the binding affinity, for displacement of [125I]AB-MECA in membranes of CHO cells stably transfected with the rat A3-cDNA at the 10e-4 concentration (M); type: cell membranes
# [9] = molecular target: Adenosine receptor A2a (Rattus norvegicus) (UniProt P30543); test: Tested for the binding affinity, for displacement of [3H]-CGS- 21680 in A2a receptors of rat striatal membrane at 10e-4 concentration (M)
# [10] = molecular target: T4, Adenosine receptor A1 (Rattus norvegicus) (UniProt P25099); test: Tested for the binding affinity, for displacement of [3H]PIA in A1 receptors of rat brain membrane at 10e-4 concentration (M); type: cell membranes
# T4 sequence (whole entry): T1 sequence (P25099 whole entry)
# Adenosine receptor A2a, sequence (P30543 whole entry): as above
Ratio [1],Ki [2] [µM],Ki [3] [µM],Ki [4] [µM],Compound,also measured
800,0.455,0.073,58.5,CCCn1c(=O)c2nc(-c3ccc(OCC(=O)NCC(=O)O)cc3)[nH]c2n(CCC)c1=O,–
–,0.226,–,6.77,CCCn1c(=O)c2[nH]c(-c3ccc(OCC(=O)O)cc3)nc2n(CCC)c1=S,–
> 10,–,–,–,CCCCCCn1c(=O)c2nc[nH]c2n(CCCCCC)c1=O,inhibition [5]: 9.2%; inhibition [6]: 14.3%
230,0.637,–,45.1,CCCn1c(=O)c2nc(-c3ccc(C(=O)O)cc3)[nH]c2n(CCC)c1=O,–
> 10,–,–,–,O=c1c2[nH]cnc2n(Cc2ccccc2)c(=O)n1Cc1ccccc1,inhibition [5]: 20.3%; inhibition [6]: 3.6%
230,–,–,–,C=CCn1c(=O)c2nc(-c3ccc(OCC(=O)O)cc3)[nH]c2n(CC=C)c1=O,–
2700,–,–,–,CCCn1c(=O)c2nc(-c3ccc(OCC(=O)NCCNC(=O)CNCC(=O)O)cc3)[nH]c2n(CCC)c1=O,–
–,29.3,0.5,–,CCCCn1c(=O)c2[nH]cnc2n(CCCC)c1=O,–
640,–,–,–,CCCn1c(=O)c2nc(-c3ccc(S(=O)(=O)O)cc3)[nH]c2n(CCC)c1=O,–
21,23.2,5.91,127,CCCCn1c(=O)c2c(nc(/C=C/C(=O)O)n2C)n(CCCC)c1=O,–
–,20,5.27,–,CCCCn1c(=O)c2[nH]c(CCCCC(=O)O)nc2n(CCCC)c1=O,–
35,9.22,2.86,99.9,CCCn1c(=O)c2nc(-c3ccc(OCC(=O)NCCNC(=O)CN(CC(=O)O)C(=O)CCC(=O)O)cc3)[nH]c2n(CCC)c1=O,–
520,0.252,0.078,40.6,CCCn1c(=O)c2nc(-c3ccc(OCC(=O)NCCNC(=O)CCC(=O)O)cc3)[nH]c2n(CCC)c1=O,–
–,–,–,–,CCCCn1c(=O)c2nc(CCCCC(=O)O)[nH]c2n(CCCC)c1=O,inhibition [7]: 13%
> 10,46,–,–,Cn1c(=O)c2c(ncn2Cc2ccccc2)n(C)c1=O,inhibition [8]: 29.7%
–,–,–,93.4,Cn1c(=O)c2[nH]c(CCCC(=O)O)nc2n(C)c1=O,–
640,–,–,–,CCCCn1c(=O)c2nc(-c3ccc(OCC(=O)O)cc3)[nH]c2n(CCCC)c1=O,–
–,0.8,–,–,CCCn1c(=O)c2nc(-c3ccc(/C=C/C(=O)O)cc3)[nH]c2n(CCC)c1=O,–
126,–,–,–,CCCn1c(=O)c2nc(-c3ccc(OCC(=O)O)cc3)[nH]c2n(CCC)c1=S,–
–,–,–,29,CCCn1c(=O)c2[nH]c(-c3ccc(OCC(=O)NCCN)cc3)nc2n(CCC)c1=O [XANTHINE AMINE CONGENER],–

Ratio [1],Ki [2] [µM],Ki [3] [µM],Ki [4] [µM],Compound,also measured
9.2,0.0129,20.5,189,Cn1c(=O)c2c(nc(/C=C/c3cccc(NC(=O)CCC(=O)O)c3)n2C)n(C)c1=O,–
–,–,–,5.29,"CCCn1c(=O)c2[nH]c(C3CCCC3)nc2n(CCC)c1=O [1,3-DIPROPYL-8-CYCLOPENTYLXANTHINE [DPCPX]]",–
–,–,–,–,Cn1c(=O)c2c(nc(/C=C/c3cccc(Cl)c3)n2C)n(C)c1=O,inhibition [5]: 4.2%
< 1,–,–,–,Cn1c(=O)c2nc(CCCC(=O)O)[nH]c2n(C)c1=O,inhibition [9]: 26%; inhibition [10]: 0%
< 1,–,–,130,Cn1c(=O)c2c(nc(/C=C/C(=O)O)n2C)n(C)c1=O,–
–,5.85,0.793,–,CCCCn1c(=O)c2c(nc(/C=C/C(=O)OC)n2C)n(CCCC)c1=O,–
–,–,–,–,Cn1c(=O)c2c(ncn2C)n(C)c1=O,inhibition [8]: 30.1%
32,0.7,0.037,1.17,CCCn1c(=O)c2nc(-c3ccc(OCC(=O)O)cc3)[nH]c2n(Cc2ccc(N)c(I)c2)c1=O,–
110,1.2,0.668,74.2,CCCCn1c(=O)c2nc[nH]c2n(Cc2ccccc2)c1=O,–
–,–,–,90.1,CCCn1c(=O)c2[nH]c(-c3ccc(S(=O)(=O)O)cc3)nc2n(CCC)c1=O,–
1300,–,–,–,CCCn1c(=O)c2nc(-c3ccc(OCC(=O)O)cc3)[nH]c2n(CCC)c1=O,–
1100,–,–,21.7,CCCn1c(=O)c2nc(-c3ccc(OCC(=O)NCCNC(=O)CN(CC(=O)O)C(=O)OCC4c5ccccc5-c5ccccc54)cc3)[nH]c2n(CCC)c1=O,–
13,0.0099,22.3,289,Cn1c(=O)c2c(nc(/C=C/c3cccc(NC(=O)CCCC(=O)O)c3)n2C)n(C)c1=O,–
22,16.5,3.37,73.7,CCCCn1c(=O)c2nc(/C=C/C(=O)O)[nH]c2n(CCCC)c1=O,–
1.6,67.8,5.7,9.36,Cn1c(=O)c2nc(CCCC(=O)O)[nH]c2n(C)c1=S,–
–,0.157,0.036,98,CCCn1c(=O)c2[nH]c(-c3ccc(OCC(=O)NCCNC(=O)CNCC(=O)O)cc3)nc2n(CCC)c1=O,–
290,–,–,–,CCCCn1c(=O)c2nc[nH]c2n(CCCC)c1=O,–
36,0.00722,6.51,234,Cn1c(=O)c2c(nc(/C=C/c3cccc(NC(=O)CCCCC(=O)O)c3)n2C)n(C)c1=O,–
18,71.7,7.11,129,CCCCn1c(=O)c2nc(CCC(=O)O)[nH]c2n(CCCC)c1=O,–
9.4,113,–,133,CCCCn1c(=O)c2nc(CCCC(=O)O)[nH]c2n(CCCC)c1=O,–

# Source: ChEMBL document CHEMBL1127794, “Structure-activity relationships of 1,3-dialkylxanthine derivatives at rat A3 adenosine receptors” (J Med Chem, 1994)
